Measured values from US11667651B2, “Aminopyridine derivatives as phosphatidylinositol phosphate kinase inhibitors” (HiberCell, Inc., priority 2017, dated 2023).

How the values were obtained:
Type in all cases: biochemical
[1] = target: T1, PIP4K2A (Homo sapiens, UniProt P48426); assay: Kinase Assay PIP4K2 A (Table 2); set-up: 4 nM PIP4K2A (full length protein, SignalChem); purchased SignalChem; conditions: compounds listed under IC50 bins
T1 sequence (P48426 1-406): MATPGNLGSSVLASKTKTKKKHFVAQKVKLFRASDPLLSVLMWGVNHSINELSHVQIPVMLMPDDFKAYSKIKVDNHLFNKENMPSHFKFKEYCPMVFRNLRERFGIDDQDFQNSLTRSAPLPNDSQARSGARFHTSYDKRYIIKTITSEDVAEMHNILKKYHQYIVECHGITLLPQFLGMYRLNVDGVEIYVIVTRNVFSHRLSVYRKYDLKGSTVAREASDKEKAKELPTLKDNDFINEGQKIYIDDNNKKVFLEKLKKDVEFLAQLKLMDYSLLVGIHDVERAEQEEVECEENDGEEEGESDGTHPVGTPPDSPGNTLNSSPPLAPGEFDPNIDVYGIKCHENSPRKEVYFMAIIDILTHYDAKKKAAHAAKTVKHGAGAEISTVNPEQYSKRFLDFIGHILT
Outline: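 Full-length PIP4K2A (4 nM in the added mix, with 100 μM PI(5)P diC8) pre-incubated 15 min at RT with compounds (10-point, 3-fold series) in 20 mM MOPS pH 7.2, 25 mM MgCl2, 0.005% Tween 20. ATP added from a 60 μM solution, 1 h at RT; ADP-Glo luminescence, IC50 fitted from % inhibition versus DMSO.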

[2] = target: T1, PIP4K2A; assay: ADP-glo kinase assay PIP4K 2A (Table 3); set-up: made in house; host or cells: E. coli; conditions: compounds listed under IC50 bins
Outline: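 Full-length PIP4K2A (4 nM in the mix) with 100 μM PI(5)P diC8 pre-incubated 15 min with compound in MOPS pH 7.2, 25 mM MgCl2; ATP added (60 μM solution), 1 h at RT. ADP formed read by ADP-Glo luminescence; 10-point curves versus DMSO controls fitted to IC50.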

[3] = target: T2, PIP4K2B (Homo sapiens, UniProt P78356); assay: Trans-FI P kinase assay PIP4K2B (Table 4); conditions: compounds listed under IC50 bins; read-out: Trans-FI P kinase assays: PIP4K2B IC50
T2 construct: made in house; host or cells: E. coli
T2 sequence (P78356 1-416): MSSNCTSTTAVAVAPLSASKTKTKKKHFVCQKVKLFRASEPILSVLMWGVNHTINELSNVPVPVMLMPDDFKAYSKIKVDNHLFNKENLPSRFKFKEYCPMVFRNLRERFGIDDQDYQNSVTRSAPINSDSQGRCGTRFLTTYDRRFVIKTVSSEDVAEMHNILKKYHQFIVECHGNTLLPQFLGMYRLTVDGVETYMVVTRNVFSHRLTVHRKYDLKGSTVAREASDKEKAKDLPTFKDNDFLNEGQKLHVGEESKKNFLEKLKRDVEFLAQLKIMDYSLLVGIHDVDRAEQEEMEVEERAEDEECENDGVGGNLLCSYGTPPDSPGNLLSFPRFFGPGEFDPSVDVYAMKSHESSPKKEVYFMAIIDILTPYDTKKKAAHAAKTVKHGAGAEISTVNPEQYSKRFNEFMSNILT
Outline: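 Transcreener FI detection (Ex 584/Em 623) of GDP, converted via calibration curve, gives IC50 from residual activity versus log concentration (highest 4.8 μM). Reaction: 80 μM PI5P plus DOPE carrier, 100 μM GTP, 5 nM GST-tagged enzyme, pH 7.3 HEPES with MgCl2 and 5% DMSO, 2 h after 1 h enzyme-compound preincubation at 27° C.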

| IC50 [1] [nM] | IC50 [2] [nM] | IC50 [3] [nM] | Compound |
| --- | --- | --- | --- |
| 10 to 100 | 100 to 1000 | 10 to 100 | CN(C)C(=O)c1ccc(-c2ccc(Nc3cnc4c(c3)N(C(=O)OC(C)(C)C)CCO4)nc2)cc1 [Example 45, tert-butyl 7-((5-(4-(dimethylcarbamoyl)phenyl)pyridin-2-yl)amino)-2,3-dihydro-1H-pyrido[2,3-b][1,4]oxazine-1-carboxylate] |
| 10 to 100 | 100 to 1000 | 10 to 100 | CN(C)C(=O)c1ccc(-c2ccc(Nc3cnc4c(c3)NCCO4)nc2)cc1 [Example 46, 4-(6-((2,3-dihydro-1H-pyrido[2,3-b][1,4]oxazin-7-yl)amino)pyridin-3-yl)-N,N-dimethylbenzamide] |
| 100 to 1000 | 100 to 1000 | > 1000 | CN(C)C(=O)c1ccc(-c2ccc(Nc3cncc(OC(F)F)c3)nc2)cc1 [Example 49, 4-(6-((5-(difluoromethoxy)pyridin-3-yl)amino)pyridin-3-yl)-N,N-dimethylbenzamide] |
| 10 to 100 | 100 to 1000 | 10 to 100 | CN(C)C(=O)c1ccc(-c2ccc(Nc3cnc4c(c3)OCCO4)nc2)cc1 [Example 50, 4-(6-((2,3-dihydro-[1,4]dioxino[2,3-b]pyridin-7-yl)amino)pyridin-3-yl)-N,N-dimethylbenzamide] |
| > 1000 | > 1000 | > 1000 | CN(C)C(=O)c1ccc(-c2ccc(Nc3ccc(CCN4CCOCC4)nc3)nc2)cc1 [Example 51, N,N-dimethyl-4-(6-((6-(2-morpholinoethyl)pyridin-3-yl)amino)pyridin-3-yl)benzamide] |
| 10 to 100 | 100 to 1000 | 10 to 100 | CN(C)C(=O)c1ccc(-c2ccc(Nc3cnc4c(c3)CCCO4)nc2)cc1 [Example 58, 4-(6-((3,4-dihydro-2H-pyrano[2,3-b]pyridin-6-yl)amino)pyridin-3-yl)-N,N-dimethylbenzamide] |
| 10 to 100 | 100 to 1000 | 10 to 100 | CC(=O)N1CCN(C)c2ncc(Nc3ccc(-c4ccc(C(=O)N(C)C)cc4)cn3)cc21 [Example 59, 4-(6-((1-acetyl-4-methyl-1,2,3,4-tetrahydropyrido[2,3-b]pyrazin-7-yl)amino)pyridin-3-yl)-N,N-dimethylbenzamide] |
| > 1000 | > 1000 | > 1000 | CN(C)C(=O)c1ccc(-c2ccc(Nc3ccc(N4CCOCC4)nc3)nc2)cc1 [Example 60, N,N-dimethyl-4-(6-((6-morpholinopyridin-3-yl)amino)pyridin-3-yl)benzamide] |
| 100 to 1000 | 100 to 1000 | > 1000 | Cc1nc2ncc(Nc3ccc(-c4ccc(C(=O)N(C)C)cc4)cn3)cc2o1 [Example 61, N,N-dimethyl-4-(6-((2-methyloxazolo[4,5-b]pyridin-6-yl)amino)pyridin-3-yl)benzamide] |
| 100 to 1000 | 100 to 1000 | > 1000 | CN(C)C(=O)c1ccc(-c2ccc(Nc3cnc4c(c3)OCO4)nc2)cc1 [Example 62, 4-(6-([1,3]dioxolo[4,5-b]pyridin-6-ylamino)pyridin-3-yl)-N,N-dimethylbenzamide] |
| > 1000 | > 1000 | > 1000 | CN(Cc1cncs1)C(=O)c1ccc(-c2ccc(Nc3cccnc3)nc2)cc1 [Example 71, N-methyl-4-(6-(pyridin-3-ylamino)pyridin-3-yl)-N-(thiazol-5-ylmethyl)benzamide] |
| 1 to 10 | 1 to 10 | 10 to 100 | CN(C)C(=O)c1ccc(-c2ccc(Nc3cncc(N4CCN(Cc5ccccc5)C4=O)c3)nc2)cc1 [Example 73, 4-(6-((5-(3-benzyl-2-oxoimidazolidin-1-yl)pyridin-3-yl)amino)pyridin-3-yl)-N,N-dimethylbenzamide] |
| 10 to 100 | 10 to 100 | 10 to 100 | C[C@@H](c1ccccc1)N1CCN(c2cncc(Nc3ccc(-c4ccc(C(=O)N(C)C)cc4)cn3)c2)C1=O [Example 80, (S)—N,N-dimethyl-4-(6-((5-(2-oxo-3-(1-phenylethyl)imidazolidin-1-yl)pyridin-3-yl)amino)pyridin-3-yl)benzamide] |
| ≤ 1 | 1 to 10 | 10 to 100 | C[C@H](c1ccccc1)N1CCN(c2cncc(Nc3ccc(-c4ccc(C(=O)N(C)C)cc4)cn3)c2)C1=O [Example 81, (R)—N,N-dimethyl-4-(6-((5-(2-oxo-3-(1-phenylethyl)imidazolidin-1-yl)pyridin-3-yl)amino)pyridin-3-yl)benzamide] |
| 1 to 10 | 1 to 10 | 10 to 100 | O=C1CCCN1c1ccc(-c2ccc(Nc3cnc4c(c3)N3C(=O)CC[C@H]3CO4)nc2)cc1 [Example 84, (S)-2-((5-(4-(2-oxopyrrolidin-1-yl)phenyl)pyridin-2-yl)amino)-6,6a,7,8-tetrahydro-9H-pyrido[2,3-b]pyrrolo[1,2-d][1,4]oxazin-9-one] |
| 1 to 10 | 10 to 100 | 10 to 100 | O=C1CCCN1c1ccc(-c2ccc(Nc3cnc4c(c3)N3C(=O)CC[C@@H]3CO4)nc2)cc1 [Example 85, (R)-2-((5-(4-(2-oxopyrrolidin-1-yl)phenyl)pyridin-2-yl)amino)-6,6a,7,8-tetrahydro-9H-pyrido[2,3-b]pyrrolo[1,2-d][1,4]oxazin-9-one] |
| 1 to 10 | 10 to 100 | 10 to 100 | CC(=O)N1CCOc2ncc(Nc3ccc(-c4ccc(N5CCCC5=O)cc4)cn3)cc21 [Example 86, 1-(4-(6-((1-acetyl-2,3-dihydro-1H-pyrido[2,3-b][1,4]oxazin-7-yl)amino)pyridin-3-yl)phenyl)pyrrolidin-2-one] |
| 10 to 100 | 100 to 1000 | 10 to 100 | O=C1CCCN1c1ccc(-c2ccc(Nc3cnc4c(c3)OCCO4)nc2)cc1 [Example 87, 1-(4-(6-((2,3-dihydro-[1,4]dioxino[2,3-b]pyridin-7-yl)amino)pyridin-3-yl)phenyl)pyrrolidin-2-one] |
| 1 to 10 | 10 to 100 | 10 to 100 | CN(C)C(=O)c1ccc(-c2ccc(Nc3cnc4c(c3)N(C(=O)CO)CCO4)nc2)cc1 [Example 89, 4-(6-((1-(2-hydroxyacetyl)-2,3-dihydro-1H-pyrido[2,3-b][1,4]oxazin-7-yl)amino)pyridin-3-yl)-N,N-dimethylbenzamide] |
| 1 to 10 | 10 to 100 | 10 to 100 | CN(C)C(=O)c1ccc(-c2ccc(Nc3cnc4c(c3)N(C(=O)c3ccccc3)CCO4)nc2)cc1 [Example 94, 4-(6-((1-benzoyl-2,3-dihydro-1H-pyrido[2,3-b][1,4]oxazin-7-yl)amino)pyridin-3-yl)-N,N-dimethylbenzamide] |
| 10 to 100 | 10 to 100 | 10 to 100 | CN(C)C(=O)c1ccc(-c2ccc(Nc3cnc4c(c3)N(C(=O)c3ccccn3)CCO4)nc2)cc1 [Example 95, N,N-dimethyl-4-(6-((1-picolinoyl-2,3-dihydro-1H-pyrido[2,3-b][1,4]oxazin-7-yl)amino)pyridin-3-yl)benzamide] |
| 1 to 10 | 10 to 100 | 10 to 100 | CN(C)C(=O)c1ccc(-c2ccc(Nc3cnc4c(c3)N(C(=O)C(C)(C)CO)CCO4)nc2)cc1 [Example 96, 4-(6-((1-(3-hydroxy-2,2-dimethylpropanoyl)-2,3-dihydro-1H-pyrido[2,3-b][1,4]oxazin-7-yl)amino)pyridin-3-yl)-N,N-dimethylbenzamide] |
| 10 to 100 | 100 to 1000 | 10 to 100 | CN(C)C(=O)c1ccc(-c2ccc(Nc3cncc(NC(=O)c4cccc(NC(=O)OC(C)(C)C)c4)c3)nc2)cc1 [Example 98, tert-butyl (3-((5-((5-(4-(dimethylcarbamoyl)phenyl)pyridin-2-yl)amino)pyridin-3-yl)carbamoyl)phenyl)carbamate] |
